Results on eight compounds are retold here after patent publication US6268496A, “Certain imidazoquinoxalines: a new class of GABA brain receptor ligands” (Neurogen Corporation, priority 1999, dated 2001).

Usually IC50 stands for the midpoint of a concentration-inhibition curve. A higher IC50 goes with a need for much substance.

The subject of assay [1] is benzodiazepine binding site. The settings on record: cited from earlier work.
Assay [2] deals with GABAa receptor. The assay is described as follows: GABAa receptor activity: displacement of 3H-RO15-1788 (3H-Flumazenil) binding in rat cortical tissue homogenate. As to conditions: 0.5 nM 3H-RO15-1788 [3H-Flumazenil], 30 min at 4° C., pH 7.4. How it is done: Rat cortical tissue is dissected and homogenized in 25 volumes (w/v) of 0.05 M Tris HCl buffer (pH 7.4 at 4° C.). The tissue homogenate is centrifuged in the cold (4°) at 20,000×g for 20'. The supernatant is decanted and the pellet is rehomogenized in the same volume of buffer and again centrifuged at 20,000×g. The supernatant is decanted and the pellet is frozen at -20° C. overnight. The pellet is then thawed and rehomogenized in 25 volume (original wt/vol) of buffer and the procedure is carried out twice. The pellet is finally resuspended in 50 volumes (w/vol of 0.05 M Tris HCl buffer (pH 7.4 at […]).
Incubations are carried for 30 min at 4° C. then are rapidly filtered through GFB filters to separate free and bound ligand. Filters are washed twice with fresh 0.05 M Tris HCl buffer (pH 7.4 at 4° C.) and counted in a liquid scintillation counter. […] diazepam is added to some tubes to determine nonspecific binding. Data are collected in triplicate determinations, averaged and % inhibition of total specific binding is calculated. Total Specific Binding=Total-Nonspecific. In some cases, the amounts of unlabeled drugs is varied and total displacement curves of binding are carried out. Data are converted to a form for the calculation of IC50 and Hill Coefficient (nH).

On to `CN1CCc2cc3c(cc2[C@H]1[C@@H]1OC(=O)c2c1ccc1c2OCO1)OCO3` [(+) bicuculline], for which, in assay [1], the “block of the enhancement of benzodiazepine binding by GABA agonists” value was “blocked”.
In the case of `CN1CCc2cc3c(cc2[C@@H]1[C@H]1OC(=O)c2c1ccc1c2OCO1)OCO3` [(-) bicuculline], the “block of the enhancement of benzodiazepine binding by GABA agonists” value in assay [1] is on record as “much less active”.
In the case of `O=c1c2c[nH]c3ccccc3n-2c(=O)n1-c1ccccc1` [Compound 1, 2-Phenyl-imidazo[1,5-a]quinoxaline-1,3(2H,5H)-dione], in assay [2], the IC50 came to 9.5 nM.
On the same count and under the same terms, as for `CCOc1ccc(-n2c(=O)c3c[nH]c4ccccc4n-3c2=O)cc1` [Compound 3, 2-(4-ethoxyphenyl)-imidazo[1,5,a]quinoxaline-1,3(2H,5H)-dione], the figure is 15 nM; as for `COc1ccc(-n2c(=O)c3c[nH]c4ccccc4n-3c2=O)cc1` [Compound 4, 2-(4-Methoxyphenyl)-imidazo[1,5,a]quinoxaline-1,3(2H,5H)-dione], 9.5 nM; as for `Cc1ccc(-n2c(=O)c3c[nH]c4ccccc4n-3c2=O)cc1` [Compound 5, 2-(4-Methylphenyl)-imidazo[1,5,a]quinoxaline-1,3(2H,5H)-dione], 16 nM.
Same read-out and setting: for `COc1ccc(-n2c(=O)c3c[nH]c4ccc(Br)cc4n-3c2=O)cc1` [Compound 33, 8-Bromo-2-(4-methoxyphenyl)-imidazo[1,5,a]quinoxaline-1,3(2H,5H)-dione] the value was 2.4 nM.
Turning to `NCCCC(=O)O` [GABA, γ-Aminobutyric acid], the “effect on binding of benzodiazepines” value in assay [1] (low affinity (1 mM) GABA binding site) is recorded as “enhance the binding of benzodiazepines”.
